What was measured:
[1] = molecular target: RAC-alpha serine/threonine-protein kinase (Homo sapiens, UniProt P31749); assay: Inhibition of Nano Luc-fused wild type AKT1 (unknown origin) expressed in HEK293 cells using luciferase substrate preincubated for 2 hrs followed by substrate added by NanoBRET Live cell target engagement assay; type: cell-based
[2] = molecular target: RAC-beta serine/threonine-protein kinase (Homo sapiens, UniProt P31751); assay: Inhibition of Nano Luc-fused wild type AKT2 (unknown origin) expressed in HEK293 cells using luciferase substrate preincubated for 2 hrs followed by substrate added by NanoBRET Live cell target engagement assay; type: cell-based
RAC-beta serine/threonine-protein kinase, sequence (P31751 whole entry, the tested form may be a part): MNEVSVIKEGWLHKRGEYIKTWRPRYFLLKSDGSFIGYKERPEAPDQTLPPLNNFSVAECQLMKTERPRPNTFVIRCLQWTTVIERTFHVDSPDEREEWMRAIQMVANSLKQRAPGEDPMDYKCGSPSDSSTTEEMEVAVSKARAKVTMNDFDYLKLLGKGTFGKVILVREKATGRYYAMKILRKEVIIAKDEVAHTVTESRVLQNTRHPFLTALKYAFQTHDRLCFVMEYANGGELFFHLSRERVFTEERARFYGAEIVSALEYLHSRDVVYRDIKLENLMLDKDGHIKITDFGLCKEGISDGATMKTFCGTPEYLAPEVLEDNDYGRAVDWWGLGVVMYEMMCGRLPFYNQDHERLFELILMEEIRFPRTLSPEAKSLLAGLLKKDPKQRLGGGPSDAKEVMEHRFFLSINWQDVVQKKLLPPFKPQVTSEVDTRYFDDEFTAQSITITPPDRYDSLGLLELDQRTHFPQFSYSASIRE

RAC-alpha serine/threonine-protein kinase, sequence (P31749 whole entry, the tested form may be a part): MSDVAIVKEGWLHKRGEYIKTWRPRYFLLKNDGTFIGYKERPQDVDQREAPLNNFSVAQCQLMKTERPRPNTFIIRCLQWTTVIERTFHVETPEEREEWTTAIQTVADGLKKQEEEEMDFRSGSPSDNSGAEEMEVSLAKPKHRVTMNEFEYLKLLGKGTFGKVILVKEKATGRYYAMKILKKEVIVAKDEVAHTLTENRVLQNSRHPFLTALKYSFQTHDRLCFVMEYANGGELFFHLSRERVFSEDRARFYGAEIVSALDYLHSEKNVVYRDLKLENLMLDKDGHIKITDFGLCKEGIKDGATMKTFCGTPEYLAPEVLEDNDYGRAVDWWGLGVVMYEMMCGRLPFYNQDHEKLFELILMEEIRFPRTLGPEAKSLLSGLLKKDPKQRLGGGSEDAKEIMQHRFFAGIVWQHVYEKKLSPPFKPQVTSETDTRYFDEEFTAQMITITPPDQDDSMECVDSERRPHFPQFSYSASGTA

| Compound | IC50 [1] | IC50 [2] |
| --- | --- | --- |
| COc1cnn(-c2ccc3nc(-c4cccnc4N)n(-c4ccc5c(c4)CC[C@@H]5NC(=O)c4ccc(O)c(C=O)c4)c3n2)c1 | ≤ 100 nM | ≥ 2000 nM |
| CS(=O)(=O)Nc1ccc(C(=O)N[C@H]2CCc3cc(-n4c(-c5cccnc5N)nc5ccc(-n6cccn6)nc54)ccc32)cc1C=O | ≤ 100 nM | ≥ 2000 nM |
| Nc1ncccc1-c1nc2ccc(-c3ccccc3F)nc2n1-c1ccc2c(c1)CC[C@@H]2NC(=O)c1ccc(O)c(C=O)c1 | ≤ 100 nM | ≤ 100 nM |
| Nc1ncccc1-c1nc2ccc(-n3cccn3)nc2n1-c1ccc2c(c1)CC[C@@H]2NC(=O)c1cc(C=O)c(O)c(F)c1F | ≤ 100 nM | ≤ 100 nM |

Second part, the compound after the results:

| IC50 [1] | IC50 [2] | Compound |
| --- | --- | --- |
| ≤ 100 nM | ≤ 100 nM | Nc1ncccc1-c1nc2ccc(-c3ccccc3)nc2n1-c1ccc2c(c1)CC[C@@H]2NC(=O)c1cc(C=O)c2[nH]ncc2c1 |
| ≤ 10 nM | ≤ 10 nM | CN1CCN(c2cccc(-c3ccc4nc(-c5cccnc5N)n(-c5ccc6c(c5)CC[C@@H]6NC(=O)c5ccc(O)c(C=O)c5)c4n3)c2)CC1 |
| ≤ 100 nM | ≤ 100 nM | Nc1ncccc1-c1nc2ccc(-c3ccccc3)nc2n1-c1ccc2c(c1)CC[C@@H]2NC(=O)c1cc(C=O)c(O)c(F)c1F |
| ≤ 10 nM | ≤ 100 nM | CC(=O)Nc1ccc(C(=O)N[C@H]2CCc3cc(-n4c(-c5cccnc5N)nc5ccc(-c6ccccc6)nc54)ccc32)cc1C=O |
